Series [1] is described as follows: Relative recalcitrancy classification of organic contaminants (FIG. 1). Format: physicochemical.
The nature of series [2]: Ozonation of contaminated soil slurry in 5-L reaction flask (Examples 1, 2 and 7). The series is classed as physicochemical.
The format of series [3] is physicochemical. The following applies: for soil concentration reduced by: continuous ozonation for 56 days.
Series [4] in a line: Laboratory ozonation of contaminants, incubation versus oxidation phase (FIGS. 2, 5, 6, 8-12). The following applies: for incubation time: lab conditions. The series is classed as physicochemical.
The conditions of series [5]: aqueous solubility; cited from earlier work.
Where [6] appears, read: by solubility, volatility and non-reactivity standards.

Structures are written as SMILES. Like-named read-outs stand apart in the source and are kept apart here.

Turning to `ClC1=C(Cl)C2(Cl)C3C4C=CC(C4)C3C1(Cl)C2(Cl)Cl` (stereo not shown) [Aldrin], the relative recalcitrancy entry in series [1] is on record as “strongly recalcitrant”.

`c1ccccc1` [Benzene]: in series [1] (setting [6]), the relative recalcitrancy entry is given as “non-recalcitrant”.

In the case of `ClC1=C(Cl)C2(Cl)C3C(Cl)C(Cl)CC3C1(Cl)C2(Cl)Cl` (stereo not shown) [Chlordane], the relative recalcitrancy result in series [1] was “strongly recalcitrant”.

As to `Clc1ccc(C(c2ccc(Cl)cc2)C(Cl)(Cl)Cl)cc1` [DDT], in series [1], the relative recalcitrancy entry is on record as “strongly recalcitrant”.

Regarding `CCCCCCCCOC(=O)c1ccccc1C(=O)OCCCCCCCC` [Di-n-octyl phthalate], the “concentration reduced by” value in series [2] (Example 2, in 48 hours of ozonation, start 37 mg/Kg) worked out at 97%.

As to `O=S1OCC2C(CO1)C1(Cl)C(Cl)=C(Cl)C2(Cl)C1(Cl)Cl` (stereo not shown) [Endosulfan II], the incubation phase result in series [3] (31 mg/kg, FIG. 17) was “about 16 days”. The “soil concentration reduced by” value in series [3] came out at 100%.

On to `CCOP(=S)(OCC)Oc1ccc([N+](=O)[O-])cc1` [Ethyl Parathion], for which the “soil concentration reduced by” value in series [3] is listed as 100%.

Turning to `Clc1c(Cl)c(Cl)c(Cl)c(Cl)c1Cl` [HCB], the “incubation phase (ozonation time)” value in series [4] is about 8 h.

In the case of `Oc1c(Cl)c(Cl)c(Cl)c(Cl)c1Cl` [PCP, Pentachlorophenol], in series [4] (FIG. 10), the incubation time entry was “about 45 minutes”. Also, the “concentration reduced by” value in series [2] (Example 1, in 31 hours, start 28 mg/Kg) worked out at 97.5%.

As to `CCOP(=S)(OCC)Oc1ccc([S+](C)[O-])cc1` (stereo not shown) [Phensulfothion], in series [3], the “soil concentration reduced by” value turned out to be 100%.

For `c1cc2c3c(cccc3c1)CC2` [acenapthene], the relative recalcitrancy result in series [1] was “recalcitrant”.

Consider `c1ccc2cc3ccccc3cc2c1` [anthracene], for which the relative recalcitrancy result in series [1] (setting [6]) is listed as “recalcitrant”.

On to `c1ccc2c(c1)cc1ccc3cccc4ccc2c1c34` [benzo(a)pyrene], for which, in series [4] (FIGS. 6, 8, 9), the incubation time entry is on record as “more than 5 hours”.

Regarding `c1ccc(-c2ccccc2)cc1` [biphenyl], the solubility in series [5] is reported as 5,200 μg/L. In addition, in series [1], the relative recalcitrancy result was “marginally recalcitrant”.

In the case of `CCCCC(CC)COC(=O)c1ccccc1C(=O)OCC(CC)CCCC` (stereo not shown) [bis(2-ethylhexyl)phthalate], the relative recalcitrancy result in series [1] (setting [6]) was “recalcitrant”. Besides, the incubation time result in series [4] (FIGS. 6, 8, 9) was “less than 30 hours”. Also, in series [2] (Example 2, in 72 hours of ozonation, start 597 mg/Kg), the “concentration reduced by” value was 98.2%.

With `c1ccc2c(c1)ccc1c3ccccc3ccc21` [chrysene], in series [1], the relative recalcitrancy entry is given as “recalcitrant”.

For `CCc1ccccc1` [ethylbenzene], the relative recalcitrancy result in series [1] is given as “non-recalcitrant”.

Take `CCCCCCC` [heptane]: the relative recalcitrancy result in series [1] (setting [6]) was “non-recalcitrant”.

For the compound `CCOC(=O)CC(SP(=S)(OC)OC)C(=O)OCC` (stereo not shown) [malathion], the relative recalcitrancy result in series [1] is “recalcitrant”.

In the case of `c1ccc2ccccc2c1` [napthalene], the relative recalcitrancy entry in series [1] is listed as “recalcitrant”.

(Values after patent US6403034B1, “Method of reducing the concentration of recalcitrant organic contamination in a soil matrix” (priority 1995, dated 2002).)
